Patent US20200085791A1, “[(PHENYLSULFONYL)OCTAHYDRO-EPIMINOISOINDOL-YL](1H-1,2,3-TRIAZOL-5-YL)METHANONES” (Bayer Pharma Aktiengesellschaft, priority 2016, published 2020)

Target: T1, recombinant human AKR1C3 (Aldo-keto reductase family 1 member C3) (Homo sapiens, UniProt P42330)
T1 construct: GST (cleaved yes); made in house; host or cells: E. coli
T1 sequence (P42330 1-323): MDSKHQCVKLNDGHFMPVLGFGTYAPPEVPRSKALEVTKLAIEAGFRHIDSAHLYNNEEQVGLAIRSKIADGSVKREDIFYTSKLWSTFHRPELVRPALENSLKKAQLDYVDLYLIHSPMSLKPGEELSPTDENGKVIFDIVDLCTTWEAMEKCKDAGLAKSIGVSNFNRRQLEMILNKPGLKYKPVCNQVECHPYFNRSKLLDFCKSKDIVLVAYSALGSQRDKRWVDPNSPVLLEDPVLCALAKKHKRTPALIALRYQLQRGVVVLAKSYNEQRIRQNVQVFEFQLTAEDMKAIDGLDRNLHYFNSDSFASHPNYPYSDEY
Experiment: In Vitro Assay 1: AKR1C3-inhibitory activity (Coumberone to Coumberol fluorescence assay)
Assay type: biochemical
Conditions: recombinant enzyme, Coumberone 0.3 μM, NADPH 10 μM, 15 min pre-incubation, 4-parameter fit; average or median values
How it was run: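 Recombinant human AKR1C3 (E. coli-expressed GST fusion, GST removed), typically ~1 nM, was preincubated 15 min with compound in 50 mM potassium phosphate pH 7 with 1 mM DTT. The reaction ran typically 90 min with 10 μM NADPH and 0.3 μM Coumberone (final), then was stopped with 1 μM EM-1404. Coumberol fluorescence (ex 380/em 520 nm) was normalized to no-inhibitor and no-enzyme controls.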

Structure (SMILES) | IC50 [nM]
O=C(c1c[nH]nn1)N1C[C@@H]2[C@H](C1)[C@@H]1CC[C@H]2N1S(=O)(=O)c1c(F)cccc1F [Example 12, {(3aR,4S,7R,7aS)-8-[(2,6-difluorophenyl)sulfonyl]octahydro-2H-4,7-epiminoisoindol-2-yl}(1H-1,2,3-triazol-4-yl)methanone] | 43
O=C(c1cnn[nH]1)N1C[C@@H]2[C@H](C1)[C@H]1CC[C@@H]2N1S(=O)(=O)c1cccc2nonc12 [Example 46, [(3aR,4R,7S,7aS)-8-(2,1,3-benzoxadiazol-4-ylsulfonyl)octahydro-2H-4,7-epiminoisoindol-2-yl](1H-1,2,3-triazol-5-yl)methanone] | 59
O=C(c1cnn[nH]1)N1C[C@@H]2[C@H](C1)[C@H]1CC[C@@H]2N1S(=O)(=O)c1ccc(Cl)cc1 [Example 31, {(3aR,4R,7S,7aS)-8-[(4-chorophenyl)sulfonyl]octahydro-2H-4,7-epiminoisoindol-2-yl}(1H-1,2,3-triazol-5-yl)methanone] | 174
O=C(c1cnn[nH]1)N1C[C@@H]2[C@H](C1)[C@H]1CC[C@@H]2N1S(=O)(=O)c1ccc2c(c1)OCO2 [Example 57, [(3aR,4R,7S,7aS)-8-(1,3-benzodioxol-5-ylsulfonyl)octahydro-2H-4,7-epiminoisoindol-2-yl](1H-1,2,3-triazol-5-yl)methanone] | 267
O=C(c1cnn[nH]1)N1C[C@@H]2[C@H](C1)[C@H]1CC[C@@H]2N1S(=O)(=O)c1ccc([N+](=O)[O-])cc1 [Example 32, {(3aR,4R,7S,7aS)-8-[(4-nitrophenyl)sulfonyl]octahydro-2H-4,7-epiminoisoindol-2-yl}(1H-1,2,3-triazol-5-yl)methanone] | 420
O=C(c1c[nH]nn1)N1C[C@@H]2[C@H](C1)[C@@H]1CC[C@H]2N1S(=O)(=O)c1cc(Cl)cc(Cl)c1 [Example 4, {(3aR,4S,7R,7aS)-8-[(3,5-dichlorophenyl)sulfonyl]octahydro-2H-4,7-epiminoisoindol-2-yl}(1H-1,2,3-triazol-4-yl)methanone] | 44
O=C(c1cnn[nH]1)N1C[C@@H]2[C@H](C1)[C@H]1CC[C@@H]2N1S(=O)(=O)c1ccc(Br)cc1 [Example 30, ((3aR,4R,7S,7aS)-8-[(4-bromophenyl)sulfonyl]octahydro-2H-4,7-epiminoisoindol-2-yl)(1H-1,2,3-triazol-5-yl)methanone] | 193
O=C(c1cnn[nH]1)N1C[C@@H]2[C@H](C1)[C@@H]1CC[C@H]2N1S(=O)(=O)c1ccc(F)c(F)c1 [Example 25, {(3aR,4S,7R,7aS)-8-[(3,4-difluorophenyl)sulfonyl]octahydro-2H-4,7-epiminoisoindol-2-yl}(1H-1,2,3-triazol-5-yl)methanone] | 132

Continued by falling IC50, values first:

IC50 [nM] | Structure (SMILES)
51 | O=C(c1c[nH]nn1)N1C[C@@H]2[C@H](C1)[C@@H]1CC[C@H]2N1S(=O)(=O)c1cccc(Cl)c1C(F)(F)F [Example 17, [(3aR,4S,7R,7aS)-8-{[3-chloro-2-(trifluoromethyl)phenyl]sulfonyl}octahydro-2H-4,7-epiminoisoindol-2-yl](1H-1,2,3-triazol-4-yl)methanone]
4 | O=C(c1c[nH]nn1)N1[C@@H]2CC[C@H]1[C@H]1CN(S(=O)(=O)c3ccccc3Cl)C[C@H]12 [Example 9, {(3aR,4S,7R,7aS)-2-[(2-chlorophenyl)sulfonyl]octahydro-1H-4,7-epiminoisoindol-8-yl}(1H-1,2,3-triazol-4-yl)methanone]
4 | Cc1ccc(Br)cc1S(=O)(=O)N1[C@@H]2CC[C@H]1[C@@H]1CN(C(=O)c3cnn[nH]3)C[C@@H]12 [Example 55, {(3aR,4R,7S,7aS)-8-[(5-bromo-2-methylphenyl)sulfonyl]octahydro-2H-4,7-epiminoisoindol-2-yl}(1H-1,2,3-triazol-5-yl)methanone]
3 | Cc1cccc(Cl)c1S(=O)(=O)N1[C@@H]2CC[C@H]1[C@@H]1CN(C(=O)c3cnn[nH]3)C[C@@H]12 [Example 40, {(3aR,4R,7S,7aS)-8-[(2-chloro-6-methylphenyl)sulfonyl]octahydro-2H-4,7-epiminoisoindol-2-yl}(1H-1,2,3-triazol-5-yl)methanone]
